Experimental data from ChEMBL document CHEMBL4665642, “Anticancer profile of newly synthesized BRAF inhibitors possess 5-(pyrimidin-4-yl)imidazo[2,1-b]thiazole scaffold” (Bioorg Med Chem, 2019).
pIC50: −log10 of the molar value.

Key:
SK-MEL-28 = assay: Cytotoxicity against human SK-MEL-28 cells assessed as reduction in cell viability by MTT assay; type: functional, cell-based
A-375 = assay: Cytotoxicity against human A-375 cells assessed as reduction in cell viability by MTT assay; type: functional, cell-based
L132 = assay: Cytotoxicity against human L132 cells assessed as reduction in cell viability by MTT assay; type: cell-based
[1] = biological target: Serine/threonine-protein kinase B-raf (Homo sapiens, UniProt P15056, V600E); assay: Inhibition of human BRAF V600E mutant using MEK1 as substrate by […] assay
Chain of Serine/threonine-protein kinase B-raf (Homo sapiens, UniProt P15056, V600E) (P15056 2-766 V600E limits assumed): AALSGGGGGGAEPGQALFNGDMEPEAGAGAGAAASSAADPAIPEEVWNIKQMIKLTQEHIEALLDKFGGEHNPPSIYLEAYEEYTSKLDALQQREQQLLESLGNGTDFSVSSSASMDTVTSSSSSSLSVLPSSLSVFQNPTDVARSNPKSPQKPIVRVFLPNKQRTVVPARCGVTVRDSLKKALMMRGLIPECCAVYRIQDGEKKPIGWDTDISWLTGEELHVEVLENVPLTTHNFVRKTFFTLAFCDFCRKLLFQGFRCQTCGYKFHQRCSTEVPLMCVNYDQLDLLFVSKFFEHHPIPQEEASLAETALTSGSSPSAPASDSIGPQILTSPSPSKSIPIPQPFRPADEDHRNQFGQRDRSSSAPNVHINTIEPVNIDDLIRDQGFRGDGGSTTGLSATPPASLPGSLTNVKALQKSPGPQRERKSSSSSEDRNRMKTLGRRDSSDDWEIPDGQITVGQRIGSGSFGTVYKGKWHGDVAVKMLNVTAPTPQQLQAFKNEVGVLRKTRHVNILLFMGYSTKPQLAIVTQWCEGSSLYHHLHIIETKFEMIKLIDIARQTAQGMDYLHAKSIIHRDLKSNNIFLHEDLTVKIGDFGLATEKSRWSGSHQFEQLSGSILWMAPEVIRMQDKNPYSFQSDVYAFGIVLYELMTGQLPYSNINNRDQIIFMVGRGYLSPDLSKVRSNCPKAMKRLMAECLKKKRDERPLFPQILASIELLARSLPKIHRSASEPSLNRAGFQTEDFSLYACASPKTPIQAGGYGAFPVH

[2] = biological target: RAF proto-oncogene serine/threonine-protein kinase (Homo sapiens, UniProt P04049); assay: Inhibition of human CRAF using MEK1 as substrate by [gamma-33P]-ATP assay
Chain of RAF proto-oncogene serine/threonine-protein kinase (P04049 whole entry): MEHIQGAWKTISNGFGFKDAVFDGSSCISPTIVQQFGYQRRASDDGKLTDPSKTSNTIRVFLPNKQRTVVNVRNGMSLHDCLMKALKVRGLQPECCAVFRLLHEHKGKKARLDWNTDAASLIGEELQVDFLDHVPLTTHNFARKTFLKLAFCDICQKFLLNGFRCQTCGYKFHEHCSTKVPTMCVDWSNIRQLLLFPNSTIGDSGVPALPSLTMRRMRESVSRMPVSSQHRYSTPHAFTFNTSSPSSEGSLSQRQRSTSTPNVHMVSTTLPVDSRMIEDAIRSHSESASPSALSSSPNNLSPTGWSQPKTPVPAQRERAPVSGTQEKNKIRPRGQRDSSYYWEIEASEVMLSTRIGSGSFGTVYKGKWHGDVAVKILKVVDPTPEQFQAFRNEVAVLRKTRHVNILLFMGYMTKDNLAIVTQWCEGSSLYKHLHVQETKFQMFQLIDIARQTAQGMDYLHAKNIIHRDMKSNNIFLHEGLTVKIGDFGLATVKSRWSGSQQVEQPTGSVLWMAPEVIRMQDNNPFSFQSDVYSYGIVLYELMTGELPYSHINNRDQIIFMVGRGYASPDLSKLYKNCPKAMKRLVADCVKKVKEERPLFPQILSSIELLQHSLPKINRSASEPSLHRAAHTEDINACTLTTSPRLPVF

[3] = biological target: Serine/threonine-protein kinase B-raf (Homo sapiens, UniProt P15056); assay: Inhibition of human BRAF using MEK1 as substrate by […] assay
Chain of Serine/threonine-protein kinase B-raf (Homo sapiens, UniProt P15056) (P15056 whole entry): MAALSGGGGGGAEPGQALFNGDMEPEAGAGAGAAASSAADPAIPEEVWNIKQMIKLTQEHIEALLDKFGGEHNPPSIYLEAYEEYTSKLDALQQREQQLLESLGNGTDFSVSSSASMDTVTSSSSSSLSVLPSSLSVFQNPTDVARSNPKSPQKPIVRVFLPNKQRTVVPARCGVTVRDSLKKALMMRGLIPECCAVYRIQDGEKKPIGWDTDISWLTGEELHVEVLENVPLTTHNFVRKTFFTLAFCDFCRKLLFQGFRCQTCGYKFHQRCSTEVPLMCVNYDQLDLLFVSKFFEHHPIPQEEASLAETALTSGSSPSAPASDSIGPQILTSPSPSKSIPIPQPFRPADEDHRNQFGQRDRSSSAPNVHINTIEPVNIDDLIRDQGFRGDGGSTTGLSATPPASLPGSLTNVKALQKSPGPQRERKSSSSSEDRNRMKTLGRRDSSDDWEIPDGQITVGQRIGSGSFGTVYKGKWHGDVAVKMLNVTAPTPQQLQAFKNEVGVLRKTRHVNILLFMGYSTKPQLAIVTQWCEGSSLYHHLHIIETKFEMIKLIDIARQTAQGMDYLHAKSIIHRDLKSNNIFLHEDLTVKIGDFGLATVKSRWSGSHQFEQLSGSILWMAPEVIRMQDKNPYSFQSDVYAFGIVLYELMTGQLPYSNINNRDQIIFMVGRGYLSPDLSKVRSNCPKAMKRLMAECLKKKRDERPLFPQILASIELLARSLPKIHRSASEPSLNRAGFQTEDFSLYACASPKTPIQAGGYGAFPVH

pIC50 [1]	pIC50 [2]	pIC50 [3]	SMILES	pIC50 (SK-MEL-28)	pIC50 (A-375)	pIC50 (L132)
			Cc1ccc(C(=O)NCCNc2nccc(-c3c(-c4cccc(F)c4)nc4sccn34)n2)cc1	4.73	5.23	3.61
			O=C(NCCCNc1nccc(-c2c(-c3cccc(F)c3)nc3sccn23)n1)c1ccc(Cl)cc1	< 4.70	4.86	
			Cc1ccc(S(=O)(=O)NCCNc2nccc(-c3c(-c4cccc(F)c4)nc4sccn34)n2)cc1	< 4.70	4.81	
7.60	7.58	7.26	COc1ccc(S(=O)(=O)NCCCNc2nccc(-c3c(-c4cccc(F)c4)nc4sccn34)n2)cc1	5.05	5.26	
			CNC(=O)c1cc(Oc2ccc(NC(=O)Nc3ccc(Cl)c(C(F)(F)F)c3)cc2)ccn1 [SORAFENIB]	5.02	5.10	
